Measurements taken from PubChem BioAssay (NCI).
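Five compound concentrations were applied to cells in 96-well plates for 48 hours; endpoints were derived by simple linear interpolation of the resulting dose-response curve. GI50 is the concentration that inhibits growth by half. The concentration for full growth arrest is given as TGI.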

System: U251 CNS
Assay: growth of human tumour cells (NCI), 48 h

| SMILES | TGI | GI50 |
| --- | --- | --- |
| Cc1cc(N(CCC#N)CCC#N)ccc1/C=C1N=C(/C=C\c2ccccc2)N(c2ccc(Cl)cc2)C\1=O | > 100 µM | – |
| O=C([CH-]C(=O)c1ccccc1)c1ccccc1.O=C([CH-]C(=O)c1ccccc1)c1ccccc1.[OH-].[OH-].[Ti+4] | > 100 µM | 18.1 µM |
| Fc1cccc(C2SCc3nc4ccccc4n32)c1F (stereo not given) | > 100 µM | – |
| O=C(N/N=C/c1cc(Cl)cc(Cl)c1O)c1ccccc1O | 18.4 µM | – |

System: XF 498 CNS
Assay: growth of human tumour cells (NCI), 48 h

| SMILES | TGI |
| --- | --- |
| Cn1c2ccccc2n2c(=O)c3c(c(C#N)c12)CCCC3 | > 100 µM |
| Cc1cc(N(CCC#N)CCC#N)ccc1/C=C1N=C(/C=C\c2ccccc2)N(c2ccc(Cl)cc2)C\1=O | > 100 µM |
| COc1cc(-c2cc(-c3cc([N+](=O)[O-])c(/C=N/NC(=O)c4ccncc4)o3)ccc2OC)ccc1C | > 100 µM |

System: RXF 393 renal
Assay: growth of human tumour cells (NCI), 48 h

| SMILES | TGI | GI50 |
| --- | --- | --- |
| Cn1c2ccccc2n2c(=O)c3c(c(C#N)c12)CCCC3 | > 100 µM | – |
| Cc1cc(N(CCC#N)CCC#N)ccc1/C=C1N=C(/C=C\c2ccccc2)N(c2ccc(Cl)cc2)C\1=O | > 100 µM | – |
| O=C([CH-]C(=O)c1ccccc1)c1ccccc1.O=C([CH-]C(=O)c1ccccc1)c1ccccc1.[OH-].[OH-].[Ti+4] | 25.9 µM | 6.85 µM |
| COc1cc(-c2cc(-c3cc([N+](=O)[O-])c(/C=N/NC(=O)c4ccncc4)o3)ccc2OC)ccc1C | > 100 µM | – |
| Fc1cccc(C2SCc3nc4ccccc4n32)c1F (stereo not given) | > 100 µM | – |
| O=C(N/N=C/c1cc(Cl)cc(Cl)c1O)c1ccccc1O | 4.97 µM | – |

System: SNB-78 CNS
Assay: growth of human tumour cells (NCI), 48 h

| SMILES | TGI |
| --- | --- |
| Cn1c2ccccc2n2c(=O)c3c(c(C#N)c12)CCCC3 | > 100 µM |
| Cc1cc(N(CCC#N)CCC#N)ccc1/C=C1N=C(/C=C\c2ccccc2)N(c2ccc(Cl)cc2)C\1=O | > 100 µM |
| Fc1cccc(C2SCc3nc4ccccc4n32)c1F (stereo not given) | > 100 µM |

System: CCRF-CEM leukemia
Assay: growth of human tumour cells (NCI), 48 h

| SMILES | TGI |
| --- | --- |
| Cc1cc(N(CCC#N)CCC#N)ccc1/C=C1N=C(/C=C\c2ccccc2)N(c2ccc(Cl)cc2)C\1=O | > 100 µM |
| Fc1cccc(C2SCc3nc4ccccc4n32)c1F (stereo not given) | > 100 µM |
| O=C(N/N=C/c1cc(Cl)cc(Cl)c1O)c1ccccc1O | > 100 µM |

System: M19-MEL melanoma
Assay: growth of human tumour cells (NCI), 48 h

| SMILES | TGI |
| --- | --- |
| Cn1c2ccccc2n2c(=O)c3c(c(C#N)c12)CCCC3 | > 100 µM |
| Cc1cc(N(CCC#N)CCC#N)ccc1/C=C1N=C(/C=C\c2ccccc2)N(c2ccc(Cl)cc2)C\1=O | > 82.7 µM |
| COc1cc(-c2cc(-c3cc([N+](=O)[O-])c(/C=N/NC(=O)c4ccncc4)o3)ccc2OC)ccc1C | > 100 µM |
| Fc1cccc(C2SCc3nc4ccccc4n32)c1F (stereo not given) | > 100 µM |

System: DMS 114 small cell lung
Assay: growth of human tumour cells (NCI), 48 h

| SMILES | TGI |
| --- | --- |
| Cn1c2ccccc2n2c(=O)c3c(c(C#N)c12)CCCC3 | > 100 µM |
| Cc1cc(N(CCC#N)CCC#N)ccc1/C=C1N=C(/C=C\c2ccccc2)N(c2ccc(Cl)cc2)C\1=O | > 100 µM |
| Fc1cccc(C2SCc3nc4ccccc4n32)c1F (stereo not given) | > 100 µM |

System: SK-OV-3 ovarian
Assay: growth of human tumour cells (NCI), 48 h

| SMILES | TGI | GI50 |
| --- | --- | --- |
| Cn1c2ccccc2n2c(=O)c3c(c(C#N)c12)CCCC3 | > 100 µM | – |
| Cc1cc(N(CCC#N)CCC#N)ccc1/C=C1N=C(/C=C\c2ccccc2)N(c2ccc(Cl)cc2)C\1=O | > 100 µM | – |
| O=C([CH-]C(=O)c1ccccc1)c1ccccc1.O=C([CH-]C(=O)c1ccccc1)c1ccccc1.[OH-].[OH-].[Ti+4] | > 100 µM | 75.6 µM |
| COc1cc(-c2cc(-c3cc([N+](=O)[O-])c(/C=N/NC(=O)c4ccncc4)o3)ccc2OC)ccc1C | > 100 µM | – |
| Fc1cccc(C2SCc3nc4ccccc4n32)c1F (stereo not given) | > 100 µM | – |
| O=C(N/N=C/c1cc(Cl)cc(Cl)c1O)c1ccccc1O | 15.3 µM | – |

System: BT-549 breast
Assay: growth of human tumour cells (NCI), 48 h

| SMILES | TGI |
| --- | --- |
| Cc1cc(N(CCC#N)CCC#N)ccc1/C=C1N=C(/C=C\c2ccccc2)N(c2ccc(Cl)cc2)C\1=O | > 100 µM |

System: SF-539 CNS
Assay: growth of human tumour cells (NCI), 48 h

| SMILES | TGI | GI50 |
| --- | --- | --- |
| Cn1c2ccccc2n2c(=O)c3c(c(C#N)c12)CCCC3 | > 100 µM | – |
| Cc1cc(N(CCC#N)CCC#N)ccc1/C=C1N=C(/C=C\c2ccccc2)N(c2ccc(Cl)cc2)C\1=O | > 100 µM | – |
| O=C([CH-]C(=O)c1ccccc1)c1ccccc1.O=C([CH-]C(=O)c1ccccc1)c1ccccc1.[OH-].[OH-].[Ti+4] | > 100 µM | 29.7 µM |
| COc1cc(-c2cc(-c3cc([N+](=O)[O-])c(/C=N/NC(=O)c4ccncc4)o3)ccc2OC)ccc1C | > 100 µM | – |
| Fc1cccc(C2SCc3nc4ccccc4n32)c1F (stereo not given) | > 100 µM | – |
| O=C(N/N=C/c1cc(Cl)cc(Cl)c1O)c1ccccc1O | 6.69 µM | 1.75 µM |

System: HOP-92 NSCLC
Assay: growth of human tumour cells (NCI), 48 h

| SMILES | TGI |
| --- | --- |
| Cc1cc(N(CCC#N)CCC#N)ccc1/C=C1N=C(/C=C\c2ccccc2)N(c2ccc(Cl)cc2)C\1=O | > 100 µM |
